According to US20180370927A1, “MICROBIOCIDAL OXADIAZOLE DERIVATIVES” (SYNGENTA PARTICIPATIONS AG, priority 2015, published 2018):
Like-named read-outs stand apart in the source and are kept apart here.

Assays:
[1] = tested on: Puccinia recondita f. Sp. Tritici; test: Puccinia recondita f. sp. tritici / wheat / leaf disc preventative (brown rust); assay type: in vivo; conditions: foliar, read-out: disease control compared to untreated control leaf disks
Protocol: (§1) Leaf disks or leaf segments of various plant species are cut from plants grown in a greenhouse. The cut leaf disks or segments are placed in multiwell plates (24-well format) onto water agar. The leaf disks are sprayed with a test solution before (preventative) or after (curative) inoculation. Compounds to be tested are prepared as DMSO solutions (max. 10 mg/mL) which are diluted to the appropriate concentration with 0.025% Tween20 just before spraying. The inoculated leaf disks or segments are incubated under defined conditions (temperature, relative humidity, light, etc.) according to the respective test system. A single evaluation of disease level is carried out 3 to 14 days after inoculation, depending on the pathosystem. Percent disease control relative to the untreated check leaf disks or segments is then calculated.
Example 1: Fungicidal Activity Against Puccinia recondita f. Sp. Tritici/Wheat/Leaf Disc Preventative (Brown Rust)
Wheat leaf segments cv. Kanzler were placed on agar in multiwell plates (24-well format) and sprayed with the formulated test compound diluted in water. The leaf disks were inoculated with a spore suspension of the fungus 1 day after application. The inoculated leaf segments were incubated at 19° C. and 75% relative humidity (rh) under a light regime of 12 hours light/12 hours darkness in a climate cabinet and the activity of a compound was assessed as percent disease control compared to untreated when an appropriate level of disease damage appears in untreated check leaf segments (7 to 9 days after application).
(§2) The following compounds at 200 ppm in the applied formulation give at least 80% disease control in this test when compared to untreated control leaf disks under the same conditions, which show extensive disease development.

[2] = tested on: Puccinia recondita f. Sp. Tritici; test: Puccinia recondita f. sp. tritici / wheat / leaf disc curative (brown rust); assay type: in vivo; conditions: foliar, 200 ppm in the applied formulation, wheat leaf segments, curative (applied 1 day after inoculation), assessed 6 to 8 days after application, read-out: disease control compared to untreated control leaf disks
Protocol: as §1
Example 2: Fungicidal Activity Against Puccinia recondita f. Sp. Tritici/Wheat/Leaf Disc Curative (Brown Rust)
Wheat leaf segments cv. Kanzler are placed on agar in multiwell plates (24-well format). The leaf segments are then inoculated with a spore suspension of the fungus. Plates were stored in darkness at 19° C. and 75% relative humidity. The formulated test compound diluted in water was applied 1 day after inoculation. The leaf segments were incubated at 19° C. and 75% relative humidity under a light regime of 12 hours light/12 hours darkness in a climate cabinet and the activity of a compound was assessed as percent disease control compared to untreated when an appropriate level of disease damage appears in untreated check leaf segments (6 to 8 days after application).
as §2

[3] = tested on: Glomerella lacenarium (Colletotrichum lacenarium); test: Glomerella lacenarium (Colletotrichum lacenarium) liquid culture / cucumber / preventative (anthracnose); assay type: cell-based; conditions: read-out: disease control (inhibition of growth, photometric) compared to untreated control
Protocol: Mycelia fragments or conidia suspensions of a fungus prepared either freshly from liquid cultures of the fungus or from cryogenic storage, are directly mixed into nutrient broth. DMSO solutions of the test compound (max. 10 mg/ml) are diluted with 0.025% Tween20 by a factor of 50 and 10 μL of this solution is pipetted into a microtiter plate (96-well format). The nutrient broth containing the fungal spores/mycelia fragments is then added to give an end concentration of the tested compound. The test plates are incubated in the dark at 24° C. and 96% relative humidity. The inhibition of fungal growth is determined photometrically after 2 to 7 days, depending on the pathosystem, and percent antifungal activity relative to the untreated check is calculated.
Example 4: Fungicidal Activity Against Glomerella lacenarium (Colletotrichum lacenarium) Liquid Culture/Cucumber/Preventative (Anthracnose)
Conidia of the fungus from cryogenic storage are directly mixed into nutrient broth (PDB—potato dextrose broth). After placing a (DMSO) solution of test compound into a microtiter plate (96-well format), the nutrient broth containing the fungal spores is added. The test plates are incubated at 24° C. and the inhibition of growth is measured photometrically 3 to 4 days after application.
The following compounds at 20 ppm in the applied formulation give at least 80% disease control in this test when compared to untreated control under the same conditions, which show extensive disease development.

[4] = 200 ppm in the applied formulation, wheat leaf segments, preventative, assessed 7 to 9 days after application
[5] = 20 ppm in the applied formulation, liquid culture in PDB, 24° C., 3 to 4 days after application

Structure (SMILES) | pest or weed control at 200 ppm [1, 4] [%] | pest or weed control at 200 ppm [2] [%] | inhibition at 20 ppm [3, 5] [%] | pest or weed control at 200 ppm [1] [%] | inhibition at 20 ppm [3] [%]
CON(Cc1ccc(-c2noc(C(F)(F)F)n2)cc1)C(=O)C(=O)NC1CCC1 [Compound 4.72, N-cyclobutyl-N′-methoxy-N′-[[4-[5-(trifluoromethyl)-1,2,4-oxadiazol-3-yl]phenyl]methyl] oxamide] | ≥ 80 | ≥ 80 | ≥ 80 |  | 
CON(Cc1ccc(-c2noc(C(F)(F)F)n2)cc1)C(=O)C(=O)N1CCOCC1 [Compound 4.80, N-methoxy-2-morpholino-2-oxo-N-[[4-[5-(trifluoromethyl)-1,2,4-oxadiazol-3-yl]phenyl]methyl] acetamide] | ≥ 80 | ≥ 80 | ≥ 80 |  | 
COCCN(Cc1ccc(-c2noc(C(F)(F)F)n2)cc1)C(=O)C(N)=O [Compound 4.12, N′-(2-methoxyethyl)-N′-[[4-[5-(trifluoromethyl)-1,2,4-oxadiazol-3-yl]phenyl]methyl] oxamide] | ≥ 80 | ≥ 80 | ≥ 80 |  | 
CC(=O)C(=O)NCc1ccc(-c2noc(C(F)(F)F)n2)c(F)c1F [Compound 1.27, N-[[2,3-difluoro-4-[5-(trifluoromethyl)-1,2,4-oxadiazol-3-yl]phenyl]methyl]-2-oxo-propanamide] | ≥ 80 | ≥ 80 | ≥ 80 |  | 
CC(=O)C(=O)NCc1ccc(-c2noc(C(F)(F)F)n2)cc1F [Compound 1.26, N-[[2-fluoro-4-[5-(trifluoromethyl)-1,2,4-oxadiazol-3-yl]phenyl]methyl]-2-oxo-propanamide] | ≥ 80 | ≥ 80 | ≥ 80 |  | 
CONC(=O)C(=O)N(Cc1ccc(-c2noc(C(F)(F)F)n2)cc1)C1CC1 [Compound 4.103, N′-cyclopropyl-N-methoxy-N′-[[4-[5-(trifluoromethyl)-1,2,4-oxadiazol-3-yl]phenyl]methyl] oxamide] | ≥ 80 | ≥ 80 | ≥ 80 |  | 
CON(Cc1ccc(-c2noc(C(F)(F)F)n2)cc1)C(=O)C(=O)NC1CC1 [Compound 4.68, N-cyclopropyl-N′-methoxy-N′-[[4-[5-(trifluoromethyl)-1,2,4-oxadiazol-3-yl]phenyl]methyl] oxamide] | ≥ 80 | ≥ 80 | ≥ 80 |  | 
CCONC(=O)C(=O)N(Cc1ccc(-c2noc(C(F)(F)F)n2)cc1)OC [Compound 4.74, N-ethoxy-N′-methoxy-N′-[[4-[5-(trifluoromethyl)-1,2,4-oxadiazol-3-yl]phenyl]methyl] oxamide] | ≥ 80 | ≥ 80 | ≥ 80 |  | 
CN(C)C(=O)C(=O)N(Cc1ccc(-c2noc(C(F)(F)F)n2)cc1)Cc1ccco1 [Compound 4.23, N′-(2-furylmethyl)-N,N-dimethyl-N′-[[4-[5-(trifluoromethyl)-1,2,4-oxadiazol-3-yl]phenyl]methyl] oxamide] | ≥ 80 | ≥ 80 | ≥ 80 |  | 
COC(=O)C(=O)N(Cc1ccc(-c2noc(C(F)(F)F)n2)cc1)OC [Compound 3.2, methyl 2-[methoxy-[[4[5-(trifluoromethyl)-1,2,4-oxadiazol-3-yl]phenyl]methyl]amino]-2-oxo-acetate] | ≥ 80 | ≥ 80 | ≥ 80 |  | 
COC(CN(C)C(=O)C(=O)Nc1ccc(-c2noc(C(F)(F)F)n2)cc1)OC [Compound 4.21, N′-(2,2-dimethoxyethyl)-N'-methyl-N-[4-[5-(trifluoromethyl)-1,2,4-oxadiazol-3-yl]phenyl] oxamide] | ≥ 80 | ≥ 80 | ≥ 80 |  | 
CCCNC(=O)C(=O)N(Cc1ccc(-c2noc(C(F)(F)F)n2)cc1)OC [Compound 4.77, N′-methoxy-N-propyl-N′-[[4-[5-(trifluoromethyl)-1,2,4-oxadiazol-3-yl]phenyl]methyl] oxamide] | ≥ 80 | ≥ 80 | ≥ 80 |  | 
CON=C(C(=O)N(Cc1ccc(-c2noc(C(F)(F)F)n2)cc1)OC)c1ccccc1 [Compound 2.4, N-methoxy-2-methoxyimino-2-phenyl-N-[[4-[5-(trifluoromethyl)-1,2,4-oxadiazol-3-yl]phenyl]methyl]acetamide] | ≥ 80 |  | ≥ 80 |  | 
CO/N=C(\C#N)C(=O)N(Cc1ccc(-c2noc(C(F)(F)F)n2)cc1)C1CC1 [Compound 2.15, (1E)-2-[cyclopropyl-[[4-[5-(trifluoromethyl)-1,2,4-oxadiazol-3-yl]phenyl]methyl]amino]-N-methoxy-2-oxo-acetimidoyl cyanide] |  |  |  | ≥ 80 | ≥ 80
CCON(C)C(=O)C(=O)NCc1ccc(-c2noc(C(F)(F)F)n2)cc1 [Compound 4.43, N′-ethoxy-N′-methyl-N-[[4-[5-(trifluoromethyl)-1,2,4-oxadiazol-3-yl]phenyl]methyl] oxamide] | ≥ 80 |  | ≥ 80 |  | 
CC(C)(CS(C)(=O)=O)NC(=O)C(=O)Nc1ccc(-c2noc(C(F)(F)F)n2)cc1 [Compound 4.17] | ≥ 80 | ≥ 80 |  |  | 
O=C(NCc1ccc(-c2noc(C(F)(F)F)n2)cc1)C(=O)NCc1ccco1 [Compound 4.60, N′-(2-furylmethyl)-N-[[4-[5-(trifluoromethyl)-1,2,4-oxadiazol-3-yl]phenyl]methyl] oxamide] | ≥ 80 |  | ≥ 80 |  | 
CON(Cc1ccc(-c2noc(C(F)(F)F)n2)cc1)C(=O)C(=O)O [Compound 3.7, 2-[methoxy-[[4-[5-(trifluoromethyl)-1,2,4-oxadiazol-3-yl]phenyl]methyl]amino]-2-oxo-acetic acid] |  | ≥ 80 | ≥ 80 |  | 
CN(C)C(=O)C(=O)N(Cc1ccc(-c2noc(C(F)(F)F)n2)cc1)OCC=C(Cl)Cl [Compound 4.31, N′-(3,3-dichloroallyloxy)-N,N-dimethyl-N′-[[4-[5-(trifluoromethyl)-1,2,4-oxadiazol-3-yl]phenyl]methyl] oxamide] | ≥ 80 |  | ≥ 80 |  | 
CON(Cc1ccc(-c2noc(C(F)(F)F)n2)cc1)C(=O)C(=O)Nc1ccccc1 [Compound 4.70, N′-methoxy-N-phenyl-N′-[[4-[5-(trifluoromethyl)-1,2,4-oxadiazol-3-yl]phenyl]methyl] oxamide] | ≥ 80 |  | ≥ 80 |  | 
CN(C)C(=O)C(=O)Nc1ccc(-c2noc(C(F)(F)F)n2)cn1 [Compound 4.10, N′,N′-dimethyl-N-[5-[5-(trifluoromethyl)-1,2,4-oxadiazol-3-yl]-2-pyridyl] oxamide] | ≥ 80 | ≥ 80 |  |  | 
NC(=O)C(=O)N(Cc1ccc(-c2noc(C(F)(F)F)n2)cc1)OCC=C(Cl)Cl [Compound 4.32, N′-(3,3-dichloroallyloxy)-N′-[[4-[5-(trifluoromethyl)-1,2,4-oxadiazol-3-yl]phenyl]methyl] oxamide] | ≥ 80 |  | ≥ 80 |  | 
